The target in series [1] is T1, Macrophage colony-stimulating factor 1 receptor (Homo sapiens, UniProt P07333). The series can be described thus: Inhibition of ATP-induced autophosphorylation of cFMS tyrosine kinase.
In series [2] the target is T1, Macrophage colony-stimulating factor 1 receptor. Kind of series: Inhibition of ATP-induced autophosphorylation of cFMS tyrosine kinase in HEK 293 cells. It is filed as cell-based, HEK293.
Series [3] is described as follows: Metabolic stability in human liver microsomes after 10 mins. In kind it is ADME, Microsome. Conditions: read-out: Stability. For orientation: Microsomes from liver hold many membrane-bound enzymes, among them those of drug oxidation.

Where only a bound is given, the exact number is not on record here.

T1 sequence (P07333 whole entry): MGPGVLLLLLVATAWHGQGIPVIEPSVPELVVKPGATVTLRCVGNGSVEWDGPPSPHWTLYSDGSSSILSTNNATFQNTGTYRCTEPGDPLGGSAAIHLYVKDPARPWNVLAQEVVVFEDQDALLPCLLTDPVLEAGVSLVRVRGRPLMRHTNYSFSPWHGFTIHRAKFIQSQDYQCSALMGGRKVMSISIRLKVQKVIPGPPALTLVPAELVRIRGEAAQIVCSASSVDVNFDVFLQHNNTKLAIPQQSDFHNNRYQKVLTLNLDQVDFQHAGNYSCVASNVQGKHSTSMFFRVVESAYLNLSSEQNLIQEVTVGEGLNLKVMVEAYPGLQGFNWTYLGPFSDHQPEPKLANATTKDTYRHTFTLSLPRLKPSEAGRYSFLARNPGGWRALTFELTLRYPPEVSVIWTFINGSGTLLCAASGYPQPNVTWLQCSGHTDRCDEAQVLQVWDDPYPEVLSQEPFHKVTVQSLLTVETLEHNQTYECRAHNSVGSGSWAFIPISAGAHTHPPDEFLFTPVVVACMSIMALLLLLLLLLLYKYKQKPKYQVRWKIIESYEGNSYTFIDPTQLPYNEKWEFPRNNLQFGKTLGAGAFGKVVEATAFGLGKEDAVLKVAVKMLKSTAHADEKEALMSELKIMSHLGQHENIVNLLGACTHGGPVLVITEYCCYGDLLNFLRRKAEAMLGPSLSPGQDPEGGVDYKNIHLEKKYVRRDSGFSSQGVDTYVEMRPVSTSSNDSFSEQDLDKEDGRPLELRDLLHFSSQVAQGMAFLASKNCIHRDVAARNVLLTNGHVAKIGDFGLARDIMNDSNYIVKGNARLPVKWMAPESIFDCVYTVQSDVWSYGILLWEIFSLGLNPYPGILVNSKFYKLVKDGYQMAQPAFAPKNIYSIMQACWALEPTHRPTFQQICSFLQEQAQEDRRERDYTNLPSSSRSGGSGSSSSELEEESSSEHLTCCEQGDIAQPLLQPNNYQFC

As to `CCCN(CC)c1ccccc1NC(=O)c1ccc([N+](=O)[O-])o1`, the IC50 (commonly the midpoint of a concentration-inhibition curve) in series [1] is greater than 10000 nM.

In the case of `CS(=O)(=O)NCc1ccc(N2CCCCC2)c(NC(=O)c2ccc(C#N)o2)c1`, the IC50 in series [1] stood at 37 nM; in series [2], 310 nM.

In series [1], `O=C(Nc1ccccc1N1CCN(c2ccccc2)CC1)c1ccc([N+](=O)[O-])o1` registered an IC50 greater than 10000 nM.

As for `N#Cc1c[nH]c(C(=O)Nc2ccccc2N2CCCCC2)c1`, the IC50 in series [1] amounted to 47 nM; in series [2], 150 nM.

Regarding `O=C(Nc1ccccc1N1CCCCC1)c1ccc(-c2ccccc2)o1`, in series [1], the IC50 is greater than 10000 nM.

Regarding `CC1CCN(c2ccccc2NC(=O)c2ccc([N+](=O)[O-])o2)CC1`, the IC50 in series [1] amounted to 78 nM; in series [2], 300 nM. In series [3], the remaining at 10 min worked out at 100%.

`O=C(Nc1ccccc1N1CCCCC1)c1ccco1` had an IC50 in series [1] greater than 10000 nM.

`N#Cc1ccc(N2CCCCC2)c(NC(=O)c2ccc(C#N)o2)c1`: the IC50 amounted to 120 nM in series [1] and 750 nM in series [2].

Turning to `O=C(O)c1ccc(C(=O)Nc2ccccc2N2CCCCC2)o1`, the IC50 in series [1] is greater than 10000 nM.

`N#Cc1ccc(C(=O)Nc2cc(COCC(O)CO)ccc2N2CCCCC2)o1` (stereo unspecified): the IC50 in series [1] is 19 nM; in series [2] it was 170 nM.

As to `N#Cc1ccc(C(=O)Nc2cc(C=O)ccc2N2CCCCC2)o1`, the figures for the IC50 in series [1] and in series [2] were 37 nM and 330 nM, respectively.

Consider `N#Cc1ccc(C(=O)Nc2cc(CN)ccc2N2CCCCC2)o1`, for which the IC50 came to 200 nM in series [1] and 3100 nM in series [2].

On to `O=C(Nc1ccccc1N1CCCC1)c1ccc([N+](=O)[O-])o1`, for which the 50% inhibitory concentration (IC50) in series [1] was determined as 1900 nM.

As for `O=C(Nc1ccccc1N1CCC(CO)CC1)c1ccc([N+](=O)[O-])o1`, the IC50 in series [1] stood at 130 nM; in series [2], 1400 nM.

`O=C(Nc1ccccc1N1CCOCC1)c1ccc([N+](=O)[O-])o1` yielded an IC50 in series [1] of 1100 nM.

For `Nc1ccc(C(=O)Nc2ccccc2N2CCCCC2)o1`, the IC50 in series [1] was greater than 10000 nM.

For the molecule `O=C(Nc1ccccc1N1CCC(CCO)CC1)c1ccc([N+](=O)[O-])o1`, the IC50 in series [1] stood at 43 nM; in series [2], 230 nM.

On to `N#Cc1ccc(C(=O)Nc2cc(O)ccc2N2CCCCC2)o1`, for which the results for the IC50 in series [1] and in series [2] were 17 nM and 2700 nM, respectively.

In series [1], `O=C(Nc1ccccc1N1CCCCC1)c1ccc(Cl)o1` registered an IC50 of 1900 nM.

Regarding `N#Cc1ccc(C(=O)Nc2cc(CN=C(N)N)ccc2N2CCCCC2)o1`, the IC50 stood at 34 nM in series [1] and 2600 nM in series [2].

As to `O=C(Nc1ccccc1N1CCC(O)CC1)c1ccc([N+](=O)[O-])o1`, the IC50 in series [1] turned out to be 140 nM; in series [2] it was 370 nM.

With `O=C(Nc1ccccc1N1C=CC=CC=C1)c1ccc([N+](=O)[O-])o1`, the IC50 in series [1] worked out at 260 nM; in series [2], 2000 nM.

`CC1CC(C)CN(c2ccccc2NC(=O)c2ccc([N+](=O)[O-])o2)C1` (stereo unspecified) yielded an IC50 in series [1] of 5300 nM.

For the molecule `O=C(Nc1ccccc1N1CCCCC1)c1ccc(C(F)(F)F)o1`, the IC50 in series [1] is greater than 10000 nM.

In the case of `N#Cc1ccc(C(=O)Nc2cc(N3CCCCC3)ccc2N2CCCCC2)o1`, the results for the IC50 in series [1] and in series [2] were 17 nM and 76 nM, respectively.

For `N#Cc1ccc(C(=O)Nc2cc(C(=O)O)ccc2N2CCCCC2)o1`, the IC50 in series [1] and in series [2] was greater than 2000 nM throughout.

Turning to `O=Cc1ccc(C(=O)Nc2ccccc2N2CCCCC2)o1`, in series [1], the IC50 is 1100 nM.

`O=C(Nc1ccccc1N1CCNCC1)c1ccc([N+](=O)[O-])o1` yielded an IC50 in series [1] greater than 10000 nM.

For the molecule `O=C(Nc1ccccc1N1CCCCC1)c1cc([N+](=O)[O-])c[nH]1`, the IC50 amounted to 47 nM in series [1] and 180 nM in series [2].

For the molecule `O=C(Nc1ccccc1N1CCCCC1)c1ccc([N+](=O)[O-])o1`, the remaining at 10 min in series [3] amounted to 41%.

The molecule `O=C(Nc1ccccc1N1CCCCC1)c1ccc(Br)o1` returned an IC50 in series [1] of 4400 nM.

As for `CC1CCN(c2ccc(CO)cc2NC(=O)c2ccc(C#N)o2)CC1`, in series [3], the remaining at 10 min came out at 83%.

In series [1], `O=C(Nc1ccccc1Nc1ccccc1)c1ccc([N+](=O)[O-])o1` showed an IC50 greater than 10000 nM.

`N#Cc1ccc(C(=O)Nc2ccccc2N2CCCCC2)o1`: the IC50 in series [1] amounted to 36 nM; in series [2] it was 370 nM.

Consider `CC1CCCN(c2ccccc2NC(=O)c2ccc([N+](=O)[O-])o2)C1` (stereo unspecified), for which the IC50 is 380 nM in series [1] and 2200 nM in series [2].

`NC(=O)c1ccc(C(=O)Nc2ccccc2N2CCCCC2)o1` gave an IC50 in series [1] greater than 10000 nM.

Consider `COc1ccc(N2CCCCC2)c(NC(=O)c2ccc(C#N)o2)c1`, for which the values for the IC50 in series [1] and in series [2] were 90 nM and 960 nM, respectively.

With `O=C(Nc1ccccc1N1CCC(O)C1)c1ccc([N+](=O)[O-])o1` (stereo unspecified), in series [1], the IC50 was greater than 10000 nM.

As for `CCCN(CCC)c1ccccc1NC(=O)c1ccc([N+](=O)[O-])o1`, in series [1], the IC50 is greater than 10000 nM.

In series [1], `O=C(Nc1ccccc1N1CCC(CO)C1)c1ccc([N+](=O)[O-])o1` (stereo unspecified) had an IC50 greater than 10000 nM.

`O=C(Nc1ccccc1N1CCC1)c1ccc([N+](=O)[O-])o1`: the IC50 in series [1] is greater than 10000 nM.

Turning to `O=C(Nc1ccccc1N1CCCCC1)c1ccc(Nc2ccccc2)o1`, the IC50 in series [1] was greater than 10000 nM.

As to `N#Cc1ccc(C(=O)Nc2cc(CO)ccc2N2CCCCC2)o1`, the values for the IC50 in series [1] and in series [2] were 25 nM and 190 nM, respectively. Besides, in series [3], the remaining at 10 min worked out at 25%.

With `CC1CCCCN1c1ccccc1NC(=O)c1ccc([N+](=O)[O-])o1` (stereo unspecified), the 50% inhibitory concentration (IC50) in series [1] was 720 nM.

Source of the values: ChEMBL document CHEMBL1140541, “Potent 2'-aminoanilide inhibitors of cFMS as potential anti-inflammatory agents” (Bioorg Med Chem Lett, 2007).
